Among the data in PMC12510601, “Transcriptomic analysis reveals that pyruvate kinase potentially plays a key role in the differentiation of Spirometra mansoni proglottids by regulating the glycolysis pathway” (PLOS Neglected Tropical Diseases, 2025) are Km values, retold here.

The assay has as its system rSmPK1 (recombinant SmPK1). Description: […],4-dinitrophenylhydrazine pyruvate assay, Michaelis-Menten / Lineweaver-Burk. The format is biochemical, Spirometra mansoni. The following applies: pH 8.0, 37 °C.

The term Km denotes the concentration of substrate that gives half-maximal velocity. For `Nc1ncnc2c1ncn2[C@@H]1O[C@H](COP(=O)(O)OP(=O)(O)O)[C@@H](O)[C@H]1O` [ADP], under “varied ADP with PEP”, the Km was 540 µM.
Take `C=C(OP(=O)(O)O)C(=O)O` [PEP]: where the note is “varied PEP with ADP”, the Km came to 1270 µM.
